Test results as given in patent US10570129B2 (Zoetis Services LLC, priority 2015, dated 2020).

How the values were obtained:
[1] = system: D. immitis microfilariae; assay: Dirofilaria immitis, microfilariae (DiMF) in vitro motility assay; type: cell-based; details: Dirofilaria immitis, 72 h, read-out: DiMF minimally effective dose (MEC)
[2] = system: Haemonchus contortus L3; assay: microbe, parasite or virus in culture; type: cell-based; details: Haemonchus contortus, 96 h, read-out: HcL3 Minimal Effective Concentration (MEC)

Row | Compound | minimal effective concentration [1] [µM] | minimal effective concentration [2] [µM]
1 | O=C(NCc1ccnc(Cl)c1)n1c2c(c3c(F)cc(C(F)(F)F)cc31)CN(C/C=C/c1ccc(Cl)cc1)CC2 [Example 323, (E)-2-(3-(4-chlorophenyl)allyl)-N-((2-chloropyridin-4-yl)methyl)-9-fluoro-7-(trifluoromethyl)-1,2,3,4-tetrahydro-5H-pyrido[4,3-b]indole-5-carboxamide] | 7.6 | > 100
2 | O=C(NCc1ccnc(Cl)c1)n1c2c(c3cc(OC(F)(F)F)ccc31)CN(C/C=C/c1ccc(C(F)(F)F)cn1)CC2 [Example 385, (E)-N-((2-chloropyridin-4-yl)methyl)-8-(trifluoromethoxy)-2-(3-(5-(trifluoromethyl)pyridin-2-yl)allyl)-1,2,3,4-tetrahydro-5H-pyrido[4,3-b]indole-5-carboxamide] | 47.8 | 0.5
3 | O=C(NCc1ccnc(F)c1)n1c2c(c3cc(Cl)ccc31)CN(C/C=C/c1ccc(F)c(Cl)c1)CC2 [Example 258, (E)-8-chloro-2-(3-(3-chloro-4-fluorophenyl)allyl)-N-((2-fluoropyridin-4-yl)methyl)-1,2,3,4-tetrahydro-5H-pyrido[4,3-b]indole-5-carboxamide] | 100 | 10
4 | O=C(NCc1ccnc(Cl)c1)n1c2c(c3cc(C(F)(F)F)ccc31)CN(C/C=C/c1ccc(OC(F)(F)F)cc1)CC2 [Example 335, (E)-N-((2-chloropyridin-4-yl)methyl)-2-(3-(4-(trifluoromethoxy)phenyl)allyl)-8-(trifluoromethyl)-1,2,3,4-tetrahydro-5H-pyrido[4,3-b]indole-5-carboxamide] | 24 | 10
5 | O=C(NCc1ccnc(F)c1)n1c2c(c3cc(OC(F)(F)F)ccc31)CN(C/C=C/c1ccc(Cl)cc1)CC2 [Example 408, (E)-2-(3-(4-chlorophenyl)allyl)-N-((2-fluoropyridin-4-yl)methyl)-8-(trifluoromethoxy)-1,2,3,4-tetrahydro-5H-pyrido[4,3-b]indole-5-carboxamide] | 10 | 1
6 | CSc1ccc2c(c1)c1c(n2C(=O)NCc2ccnc(Cl)c2)CCN(C/C=C/c2ccc(F)cc2)C1 [Example 448, (E)-N-((2-chloropyridin-4-yl)methyl)-2-(3-(4-fluorophenyl)allyl)-8-(methylthio)-1,2,3,4-tetrahydro-5H-pyrido[4,3-b]indole-5-carboxamide] | 3.3 | 1.3
7 | O=C(NCc1ccnc(Cl)c1)n1c2c(c3cc(Br)ccc31)CN(C/C=C/c1ccc(Cl)c(Cl)c1)CC2 [Example 186, (E)-8-bromo-N-((2-chloropyridin-4-yl)methyl)-2-(3-(3,4-dichlorophenyl)allyl)-1,2,3,4-tetrahydro-5H-pyrido[4,3-b]indole-5-carboxamide] | > 100 | 1
8 | N#Cc1ccc2c(c1)c1c(n2C(=O)NCc2ccnc(F)c2)CCN(C/C=C/c2cc(Cl)c(F)c(Cl)c2)C1 [Example 112, (E)-8-cyano-2-(3-(3,5-dichloro-4-fluorophenyl)allyl)-N-((2-fluoropyridin-4-yl)methyl)-1,2,3,4-tetrahydro-5H-pyrido[4,3-b]indole-5-carboxamide] | > 100 | 0.5
9 | N#Cc1ccc2c3c(n(C(=O)NCc4ccnc(Cl)c4)c2c1)CCN(C/C=C/c1cc(F)ccc1Br)C3 [Example 10, (E)-2-(3-(2-bromo-5-fluorophenyl)allyl)-N-((2-chloropyridin-4-yl)methyl)-7-cyano-1,2,3,4-tetrahydro-5H-pyrido[4,3-b]indole-5-carboxamide] | > 100 | 1
10 | NC(=O)c1ccc2c3c(n(C(=O)NCc4ccnc(Cl)c4)c2c1)CCN(C/C=C/c1ccc(Cl)cc1)C3 [Example 464, (E)-2-(3-(4-chlorophenyl)allyl)-N^5-((2-chloropyridin-4-yl)methyl)-1,2,3,4-tetrahydro-5H-pyrido[4,3-b]indole-5,7-dicarboxamide] | 7.6 | 3.3
11 | N#Cc1ccc(/C=C/CN2CCc3c(c4cc(OC(F)(F)F)ccc4n3C(=O)NCc3ccnc(F)c3)C2)cc1F [Example 402, (E)-2-(3-(4-cyano-3-fluorophenyl)allyl)-N-((2-fluoropyridin-4-yl)methyl)-8-(trifluoromethoxy)-1,2,3,4-tetrahydro-5H-pyrido[4,3-b]indole-5-carboxamide] | 5.7 | 0.3
12 | O=C(NCc1ccnc(Cl)c1)n1c2c(c3ccc(OC(F)(F)F)cc31)CN(Cc1ccc3cc(Cl)ccc3c1)CC2 [Example 368, 2-((6-chloronaphthalen-2-yl)methyl)-N-((2-chloropyridin-4-yl)methyl)-7-(trifluoromethoxy)-1,2,3,4-tetrahydro-5H-pyrido[4,3-b]indole-5-carboxamide] | 43.5 | > 100
13 | O=C(NCc1ccnc(Cl)c1)n1c2c(c3c(OC(F)(F)F)cccc31)CN(C/C=C/c1ccc(OC(F)(F)F)cc1)CC2 [Example 361, (E)-N-((2-chloropyridin-4-yl)methyl)-9-(trifluoromethoxy)-2-(3-(4-(trifluoro-methoxy)phenyl)allyl)-1,2,3,4-tetrahydro-5H-pyrido[4,3-b]indole-5-carboxamide] | 57.4 | > 100
14 | O=C(NCc1ccnc(F)c1)n1c2c(c3cc(OC(F)(F)F)ccc31)CN(C/C=C/c1cc(F)cc(F)c1)CC2 [Example 407, (E)-2-(3-(3,5-difluorophenyl)allyl)-N-((2-fluoropyridin-4-yl)methyl)-8-(trifluoromethoxy)-1,2,3,4-tetrahydro-5H-pyrido[4,3-b]indole-5-carboxamide] | 5.7 | 1
15 | O=C(NCc1ccnc(Cl)c1)n1c2c(c3cc(OC(F)(F)F)c(Cl)cc31)CN(C/C=C/c1ccc(Cl)cc1)CC2 [Example 496, (E)-7-chloro-2-(3-(4-chlorophenyl)allyl)-N-((2-chloropyridin-4-yl)methyl)-8-(trifluoromethoxy)-1,2,3,4-tetrahydro-5H-pyrido[4,3-b]indole-5-carboxamide] | 5.7 | 1
16 | O=C(NCc1ccnc(F)c1)n1c2c(c3ccc(OC(F)(F)F)cc31)CN(C/C=C/c1ccc(Cl)cc1F)CC2 [Example 371, (E)-2-(3-(4-chloro-2-fluorophenyl)allyl)-N-((2-fluoropyridin-4-yl)methyl)-7-(trifluoromethoxy)-1,2,3,4-tetrahydro-5H-pyrido[4,3-b]indole-5-carboxamide] | 24.5 | 1.3
17 | O=C(NCc1ccnc(Cl)c1)n1c2c(c3c(Cl)c(F)ccc31)CN(C/C=C/c1ccc(C(F)(F)F)cc1)CC2 [Example 308, (E)-9-chloro-N-((2-chloropyridin-4-yl)methyl)-8-fluoro-2-(3-(4-(trifluoro-methyl)phenyl)allyl)-1,2,3,4-tetrahydro-5H-pyrido[4,3-b]indole-5-carboxamide] | 32.1 | 10.3
18 | O=C(NCc1ccnc(Cl)c1)n1c2c(c3cccc(Cl)c31)CN(C/C=C/c1ccc(C(F)(F)F)cc1)CC2 [Example 272, (E)-6-chloro-N-((2-chloropyridin-4-yl)methyl)-2-(3-(4-(trifluoromethyl)-phenyl)allyl)-1,2,3,4-tetrahydro-5H-pyrido[4,3-b]indole-5-carboxamide] | 10 | > 100
19 | O=C(NCc1ccnc(Cl)c1)n1c2c(c3ccc(Br)cc31)CN(C/C=C/c1ccc(F)c(F)c1)CC2 [Example 440, (E)-7-bromo-N-((2-chloropyridin-4-yl)methyl)-2-(3-(3,4-difluorophenyl)allyl)-1,2,3,4-tetrahydro-5H-pyrido[4,3-b]indole-5-carboxamide] | 10 | 1.8
20 | O=C(NCc1ccnc(F)c1)n1c2c(c3ccc(OC(F)(F)F)cc31)CN(C/C=C/c1ccc(F)cc1Cl)CC2 [Example 373, (E)-2-(3-(2-chloro-4-fluorophenyl)allyl)-N-((2-fluoropyridin-4-yl)methyl)-7-(trifluoromethoxy)-1,2,3,4-tetrahydro-5H-pyrido[4,3-b]indole-5-carboxamide] | 10 | 1.8
21 | N#Cc1ccc2c3c(n(C(=O)NCc4ccnc(F)c4)c2c1)CCN(C/C=C/c1cc(F)c(Cl)c(F)c1)C3 [Example 50, (E)-2-(3-(4-chloro-3,5-difluorophenyl)allyl)-7-cyano-N-((2-fluoropyridin-4-yl)methyl)-1,2,3,4-tetrahydro-5H-pyrido[4,3-b]indole-5-carboxamide] | 10 | 1.8
22 | O=C(NCc1ccnc(Cl)c1)n1c2c(c3ccc(Cl)cc31)CN(C/C=C/c1ccc(C(F)(F)F)cn1)CC2 [Example 206, (E)-7-chloro-N-((2-chloropyridin-4-yl)methyl)-2-(3-(5-(trifluoromethyl)-pyridin-2-yl)allyl)-1,2,3,4-tetrahydro-5H-pyrido[4,3-b]indole-5-carboxamide] | 3.3 | 0.2
23 | O=C(NCc1ccnc(Cl)c1)n1c2c(c3ccc(OC(F)(F)F)cc31)CN(C/C=C/c1ccc(F)cc1F)CC2 [Example 347, (E)-N-((2-chloropyridin-4-yl)methyl)-2-(3-(2,4-difluorophenyl)allyl)-7-(trifluoromethoxy)-1,2,3,4-tetrahydro-5H-pyrido[4,3-b]indole-5-carboxamide] | 2.4 | 2.4
24 | O=C(NCc1ccnc(Cl)c1)n1c2c(c3cc(OC(F)(F)F)ccc31)CN(C/C=C/c1ccc(OC(F)(F)F)cc1)CC2 [Example 395, (E)-N-((2-chloropyridin-4-yl)methyl)-8-(trifluoromethoxy)-2-(3-(4-(trifluoro-methoxy)phenyl)allyl)-1,2,3,4-tetrahydro-5H-pyrido[4,3-b]indole-5-carboxamide] | 22.2 | 3.3
